These are literature values, as cited in patent publication US7361789B1, “Dihydronaphthalene compounds, compositions, uses thereof, and methods for synthesis” (Amgen Inc., priority 2004, dated 2008).

SMILES strings stand for the structures. Read-outs that look alike come from different tables or passages of the source.

`C[C@@H](NCCCc1cccc(C(F)(F)F)c1)c1cccc2ccccc12` [cinacalcet]: where the note is “neutral pH”, the solubility in water entry was “less than 1 μg/mL”. In addition, the solubility entry is, setting by setting: (pH is about 1) “about 0.1 mg/mL”; (pH ranges from about 3 to about 5) “about 1.6 mg/mL”.
